ChEMBL document CHEMBL1145114, “The combi-targeting concept: chemical dissection of the dual targeting properties of a series of "combi-triazenes"” (J Med Chem, 2003)

What was measured:
NIH3T3 [1] = assay: cells; conditions: Mus musculus
Description: Selective inhibition of serum stimulated growth of NIH3T3 isogenic cells

NIH3T3 [2] = assay: cells; conditions: Mus musculus; remark: listed apart in the source
Description: Selective inhibition of serum stimulated growth of NIH3T3neu isogenic cells

[3] = molecular target: Epidermal growth factor receptor (Homo sapiens, UniProt P00533); assay: In vitro inhibition of Epidermal growth factor receptor tyrosine kinase isolated from A431 (human carcinoma).
Sequence of Epidermal growth factor receptor (P00533 whole entry): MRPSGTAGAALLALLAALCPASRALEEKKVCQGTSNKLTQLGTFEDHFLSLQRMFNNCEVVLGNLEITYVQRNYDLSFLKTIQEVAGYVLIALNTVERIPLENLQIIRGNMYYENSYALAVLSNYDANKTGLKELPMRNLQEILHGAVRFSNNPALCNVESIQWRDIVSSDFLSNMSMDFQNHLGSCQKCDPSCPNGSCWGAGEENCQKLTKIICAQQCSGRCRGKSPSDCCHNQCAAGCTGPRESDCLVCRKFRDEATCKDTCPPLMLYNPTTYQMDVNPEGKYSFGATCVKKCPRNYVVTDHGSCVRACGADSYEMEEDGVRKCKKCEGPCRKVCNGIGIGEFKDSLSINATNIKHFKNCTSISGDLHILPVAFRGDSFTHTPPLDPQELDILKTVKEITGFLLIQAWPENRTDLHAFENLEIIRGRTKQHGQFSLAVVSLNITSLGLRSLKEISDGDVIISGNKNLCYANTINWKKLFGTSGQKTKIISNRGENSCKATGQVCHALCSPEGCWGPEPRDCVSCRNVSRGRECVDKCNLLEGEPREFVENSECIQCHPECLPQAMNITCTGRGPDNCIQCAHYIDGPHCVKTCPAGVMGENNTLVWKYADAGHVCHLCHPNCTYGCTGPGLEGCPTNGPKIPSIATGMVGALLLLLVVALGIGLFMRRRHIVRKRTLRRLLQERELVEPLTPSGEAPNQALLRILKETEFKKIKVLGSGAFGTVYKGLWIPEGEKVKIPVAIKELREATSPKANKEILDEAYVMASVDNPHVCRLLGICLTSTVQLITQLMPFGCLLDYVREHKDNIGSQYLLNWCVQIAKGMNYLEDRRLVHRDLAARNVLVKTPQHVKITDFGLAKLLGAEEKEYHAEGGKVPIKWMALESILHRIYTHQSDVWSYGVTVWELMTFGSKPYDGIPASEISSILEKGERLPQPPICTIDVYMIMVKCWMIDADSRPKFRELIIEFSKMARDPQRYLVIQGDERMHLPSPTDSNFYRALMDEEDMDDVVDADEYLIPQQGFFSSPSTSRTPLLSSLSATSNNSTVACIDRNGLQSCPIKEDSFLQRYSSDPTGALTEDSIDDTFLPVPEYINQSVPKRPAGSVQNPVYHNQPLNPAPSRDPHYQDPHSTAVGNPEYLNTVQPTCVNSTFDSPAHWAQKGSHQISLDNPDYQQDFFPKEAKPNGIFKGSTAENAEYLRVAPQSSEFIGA

A-431 = assay: In vitro inhibition of A431 (human carcinoma) cell basal growth.; type: functional, cell-based

| IC50 [3] [µM] | IC50 (A-431) [µM] | Compound | IC50 (NIH3T3 [1]) [µM] | IC50 (NIH3T3 [2]) [µM] |
| --- | --- | --- | --- | --- |
| 0.024 | 94 | Cc1cccc(Nc2ncnc3ccc(/N=N/N(C)C)cc23)c1 | 50.8 | 6.94 |
| – | 16.7 | C/N=N/Nc1ccc2ncnc(Nc3cccc(Cl)c3)c2c1 | 32.1 | 4.16 |
| 0.011 | 100 | CN(C)/N=N/c1ccc2ncnc(Nc3cccc(Br)c3)c2c1 | 52.5 | 3.74 |
| 8 | 89.5 | CN=NNc1ccc2ncnc(N(C)c3ccccc3)c2c1 | 30.5 | 81 |
| 0.014 | 100 | CN(C)/N=N/c1ccc2ncnc(Nc3cccc(Cl)c3)c2c1 | 60.4 | 3.09 |
| 8.4 | 116 | CN(c1ccccc1)c1ncnc2ccc(N)cc12 | 71.4 | 99.4 |
| – | 40 | COCC/N=N/Nc1ccc2ncnc(Nc3cccc(Br)c3)c2c1 | 42.9 | 2.98 |
| 0.482 | 50.3 | CN(C)/N=N/c1ccc2ncnc(NCc3ccccc3)c2c1 | 67.3 | 33.9 |
| – | 23.2 | C/N=N/Nc1ccc2ncnc(Nc3cccc(C)c3)c2c1 | 68.3 | 9.69 |
| 0.038 | 12.4 | CN(C)CCN=NNc1ccc2ncnc(Nc3cccc(Br)c3)c2c1 | 16.7 | 3.4 |
| – | 16 | C/N=N/Nc1ccc2ncnc(Nc3cccc(Br)c3)c2c1 | 33 | 4.32 |
| 9.3 | 25.1 | CN(c1ccccc1)c1ncnc2ccc(NN=NCc3ccccn3)cc12 | 39.4 | 64.1 |
| 0.335 | 20 | CN=NNc1ccc2ncnc(NCc3ccccc3)c2c1 | 50.3 | 34.9 |
| 0.508 | 25 | Nc1ccc2ncnc(NCc3ccccc3)c2c1 | 96.7 | 33.8 |
| 13.3 | 29.8 | CN(C)/N=N/c1ccc2ncnc(N(C)c3ccccc3)c2c1 | 47 | 31.6 |

| Compound | IC50 [3] [µM] | IC50 (A-431) [µM] | IC50 (NIH3T3 [1]) [µM] | IC50 (NIH3T3 [2]) [µM] |
| --- | --- | --- | --- | --- |
| Brc1cccc(Nc2ncnc3ccc(N/N=N/CCN4CCOCC4)cc23)c1 | 0.064 | 33 | 22.2 | 2.92 |
| Brc1cccc(Nc2ncnc3ccc(NN=NCc4ccccn4)cc23)c1 | 0.238 | 11.4 | 30.6 | 4.06 |
| Cc1cccc(Nc2ncnc3ccc(N)cc23)c1 | – | 65 | 90 | 7.2 |
| Brc1cccc(Nc2ncnc3ccc(NN=NCc4ccccc4)cc23)c1 | 0.025 | 20 | 60.2 | 11.2 |
| Nc1ccc2ncnc(Nc3cccc(Br)c3)c2c1 | – | 45 | 52.9 | 4.1 |
